Values of other authors in patent publication US7169818B2, “Lysophosphatidic acid receptor agonists and antagonists” (University of Virginia Patent Foundation, priority 2000, dated 2007).

How the values were obtained:
Settings in all cases: previously reported; cited from earlier work
mouse LPA1 = mouse LPA1 (Mus musculus, UniProt P61793); set-up: expressed in transfected cells; host or cells: HEK293T (transient); for part of the results RH7777 membranes
human platelets = test system: human platelets
human LPA2 = human LPA2 (Homo sapiens, UniProt Q9HBW0); set-up: expressed in transfected cells; host or cells: HEK293T (transient)
human LPA3 = biological target: T1, human LPA3 (Homo sapiens, UniProt Q9UBY5); set-up: expressed in transfected cells; host or cells: HEK293T (transient)
T1 sequence (Q9UBY5 1-353): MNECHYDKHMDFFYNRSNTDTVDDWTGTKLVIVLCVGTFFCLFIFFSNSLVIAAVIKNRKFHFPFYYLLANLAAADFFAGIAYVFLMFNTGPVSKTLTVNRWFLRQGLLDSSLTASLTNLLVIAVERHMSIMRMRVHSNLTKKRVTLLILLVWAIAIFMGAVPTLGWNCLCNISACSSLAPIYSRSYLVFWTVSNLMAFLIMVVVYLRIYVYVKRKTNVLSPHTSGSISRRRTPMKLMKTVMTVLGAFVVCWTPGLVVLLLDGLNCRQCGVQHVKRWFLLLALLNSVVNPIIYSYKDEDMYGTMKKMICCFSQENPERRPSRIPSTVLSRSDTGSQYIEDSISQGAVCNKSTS

Xenopus laevis ooctyes = test system: Xenopus laevis ooctyes

human LPA2, sequence (Q9HBW0 whole entry): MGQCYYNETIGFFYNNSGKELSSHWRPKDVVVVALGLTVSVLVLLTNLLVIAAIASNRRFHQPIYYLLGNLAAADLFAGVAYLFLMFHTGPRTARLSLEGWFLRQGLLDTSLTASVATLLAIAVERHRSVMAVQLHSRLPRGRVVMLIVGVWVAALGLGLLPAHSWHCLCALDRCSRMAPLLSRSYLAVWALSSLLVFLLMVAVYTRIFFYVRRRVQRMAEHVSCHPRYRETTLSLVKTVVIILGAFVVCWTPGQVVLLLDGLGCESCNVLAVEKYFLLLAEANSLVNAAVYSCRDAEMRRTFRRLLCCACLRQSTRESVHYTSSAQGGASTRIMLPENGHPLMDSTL
mouse LPA1, sequence (P61793 whole entry): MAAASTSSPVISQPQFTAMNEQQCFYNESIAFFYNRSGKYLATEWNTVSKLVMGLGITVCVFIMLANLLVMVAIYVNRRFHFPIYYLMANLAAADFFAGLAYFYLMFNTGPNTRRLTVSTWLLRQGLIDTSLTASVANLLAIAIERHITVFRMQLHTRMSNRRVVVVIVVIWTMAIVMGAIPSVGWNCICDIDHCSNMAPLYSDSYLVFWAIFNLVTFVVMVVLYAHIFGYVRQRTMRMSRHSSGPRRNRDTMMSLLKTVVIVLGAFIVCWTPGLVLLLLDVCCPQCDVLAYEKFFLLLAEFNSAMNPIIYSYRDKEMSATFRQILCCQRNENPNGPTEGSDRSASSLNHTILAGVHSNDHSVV

CCCCCCCC/C=C\CCCCCCCC(=O)NCCOP(=O)(O)O [NAEPA, N-oleoyl ethanolamide phosphoric acid]
GTP[γ35S] binding at LPA1 containing membranes relative to LPA (literature) (mouse LPA1): nearly indistinguishable from LPA | platelet aggregation (literature) (human platelets): nearly indistinguishable from LPA | GTP[γ35S] binding at LPA2 containing membranes relative to LPA (literature) (human LPA2): nearly indistinguishable from LPA | activity at recombinant LPA3 relative to LPA (literature) (human LPA3): distinctly less active than LPA | oocyte depolarization (literature) (Xenopus laevis ooctyes): distinctly less active than LPA
